From patent publication US5114941A, “Pyrimidinedione derivative compounds, method for preparing same, and antiarrythmic agents containing same” (Mitsui Toatsu Chemicals, Incorporated, priority 1989, dated 1992)
Structures can show the parent of a compound that is named as a salt.

Experiments:
[1] = tested on: ventricular muscle refractory period; test: Influence on ventricular muscle refractory period (ERP); type: in vivo, dog (mongrel adult dog); conditions: Canis lupus familiaris, iv, i.v., anesthetized dog, change vs before administration, read-out: ERP (%; extensibility of refractory period)
Description: (2) Influence on ventricular muscle refractory period:
Refractory periods were measured in the following manner before and after each of the compounds and d-sotalol shown in Table 1 was separately administered to a vein or a duodenum, and ERP (%; extensibility of refractory period) was calculated from the measured values in accordance with the following formula: […]
W: Refractory period after administration
Y: Refractory period before administration
To a mongrel adult dog, 30 mg/kg of pentobarbital was administered intravenously, and after being anesthetized, a pair of silver-silver chloride electrodes separated by 3 mm was sewn on an opened right ventricule, and electrical stimulation was given at an interval of 400 msec at a duration time of 4 msec under a current twice as much as the threshold. Afterward, a small amount of alcohol was injected into a sinus artery in order to extinguish a pacemaker activity, and the ventricular refractory period (ERP) was measured under ventricule pacing.
That is, 1 train comprised 10 stimulations, and an interval between two of the trains was usually 400 msec. At the time of the refractory period measurement, however, the above interval was shortened every 10 smec, and the interval between the trains at the time when reaction to the first stimulation of the train disappeared was regarded as the refractory period.
In this case, the electrical stimulation was fed in accordance with a program by a heart stimulation device (Diamedical Co., Ltd.; DHM-226-3).

[2] = tested on: Purkinje fiber of the right ventricular free wall; test: Influence on myocardial action potential duration time (APD75), isolated right ventricular free wall; parameters: species or system dog (hybrid adult dog); conditions: Canis lupus familiaris, 20 min, 20 minutes' incubation; for APD75 prolongation (% change vs before administration) at 1 µg/mL: dose 1.0 μg/ml; for APD75 prolongation (% change vs before administration) at 3 µg/mL: dose 3.0 μg/ml; for APD75 prolongation (% change vs before administration) at 10 µg/mL: dose 10.0 μg/ml
Description: (1) Influence on myocardial action potential duration time (APD75): To a hybrid adult dog, 30 mg/kg of pentobarbital was administered through a vein, and after being anesthetized, the heart was removed. Afterward, the right ventricular free wall of the heart was cut and taken out in a Tyrode solution. […] In this isolated condition, myocardial action potential duration times (APD75) were measured before and after the administration of the respective compounds prepared in the above examples in Table 1 and d-sotalol as a control medicine, and APD75 (%) was calculated from the measured results in accordance with the formula: APD75 (%)=([…]75 before administration B: APD75 after administration Here, APD75 was measured as follows: […] This measured time was regarded as the myocardial action potential duration time (APD75). […] Incidentally, this test was carried out in accordance with a Sato et al's method [H. Sato, K. Hashimoto, Arzneimeittel Forschung, 34 (1), 3a, 376-380 (1984)].

[3] = Toxicity test, mortality 24 hours after oral administration; conditions: mouse, in vivo, 300 mg/kg p.o., mice, 24 hours after administration, read-out: Mortality Rate (%)
Description: Each of the compounds prepared in the above-mentioned examples shown in Table 2 was administered into a mouse (ddy strain, male). In each case, the administration was effected by oral administration (p.o.) in a dose of 300 mg/kg.
A mortality rate (number of specimens: one group=2 to 4 mice) of the mice 24 hours after the administration was calculated, and the results are set forth in Table 2.

Row | Compound | change in vivo at 0.1 mg/kg [1] | change in vivo at 0.3 mg/kg [1] | change in vivo at 1 mg/kg [1] | change in vivo at 3 mg/kg [1] | APD75 prolongation (% change vs before administration) at 1 µg/mL [2] | APD75 prolongation (% change vs before administration) at 3 µg/mL [2] | mortality at 24 h [3] | APD75 prolongation (% change vs before administration) at 10 µg/mL [2] | APD75 prolongation (% change vs before administration) at 0.3 µg/mL ([2]; dose 0.3 μg/ml)
1 | Cc1coc2cccc(OCCCN3CCN(c4cc(=O)n(C)c(=O)n4C)CC3)c2c1=O [Compound 4, 1,3-dimethyl-6-(4-[3-(3-methyl-4-oxo-4H-1-benzopyran-5-yl)oxypropyl]piperazine-1-yl)-2,4(1H,3H)-pyrimidinedione hydrochloride] | 6.3% | 12.5% | 12.5% | 25% | 24% | 30% | 0% | – | –
2 | Cc1oc2cccc(OCCCN3CCN(c4cc(=O)n(C)c(=O)n4C)CC3)c2c(=O)c1C [Compound 7, 1,3-dimethyl-6-(4-[3-(2,3-dimethyl-4-oxo-4H-1-benzopyran-5-yl)oxypropyl]piperazine-1-yl)-2,4(1H,3H)-pyrimidinedione oxalate] | 12% | 18% | 18% | 24% | 25% | 31% | 0% | – | –
3 | CCN(CCCOc1cccc2occ(C)c(=O)c12)CCNc1cc(=O)n(C)c(=O)n1C [Compound 14, 1,3-dimethyl-6-(2-[N-ethyl-N-[3-(3-methyl-4-oxo-4H-1-benzopyran-5-yl)oxypropyl]amino[ethylamino)-2,4(1H,3H)-pyrimidinedione oxalate] | 6.8% | 6.8% | 10.7% | 13.6% | 4% | 17% | 0% | 25% | –
4 | Cn1c(N2CCN(CCCOc3cccc4c3C(=O)CC(c3ccccc3)O4)CC2)cc(=O)n(C)c1=O (stereo not drawn) [Compound 21, 1,3-dimethyl-6-(4-[3-(2-phenyl-4-oxo-2,3-dihydro-4H-1-benzopyran-5-yl)oxypropyl]piperazine-1-yl)-2,4(1H,3H)-pyrimidinedione oxalate] | 0% | 0% | 0% | 7.7% | 12% | 16% | 0% | 20% | –
5 | Cn1c(N2CCN(CCCOc3cccc4oc(-c5ccncc5)cc(=O)c34)CC2)cc(=O)n(C)c1=O [Compound 25, 1,3-dimethyl-6-(4-[3-[2-(pyridine-4-yl)-4-oxo-4H-1-benzopyran-5-yl]oxypropyl]piperazine-1-yl)-2,4(1H,3H)-pyrimidinedione dihydrochloride] | 6.3% | 6.7% | 12.5% | – | 7% | 19% | 0% | 27% | –
6 | Cn1c(N2CCN(CCCOc3cccc4occc(=O)c34)CC2)cc(=O)n(C)c1=O [Compound 38, 1,3-Dimethyl-6-(4-[3-(4-oxo-4H-1-benzopyran-5-yl)oxypropyl]pyperazine-1-yl)-2,4(1H,3H)-pyrimidinedione hydrochloride] | 4.5% | 9.3% | 16% | 16% | 10% | 20% | 0% | 39% | –
7 | Cn1c(N2CCN(CCCOc3cccc4oc(-c5ccccc5)cc(=O)c34)CC2)cc(=O)n(C)c1=O [Compound 39, 1,3-Dimethyl-6-(4-[3-(2-phenyl-4-oxo-4H-1-benzopyran-5-yl)oxypropyl]piperazine-1-yl)-2,4(1H,3H)-pyrimidinedione oxalate] | 7.1% | 14.3% | 14.3% | 14.3% | 7% | 20% | 0% | – | –
8 | Cc1cc(=O)c2c(OCCCN3CCN(c4cc(=O)n(C)c(=O)n4C)CC3)cccc2o1 [Compound 40, 1,3-Dimethyl-6-(4-[3-(2-methyl-4-oxo-4H-1-benzopyran-5-yl)oxypropyl-piperazine-1-yl)-2,4(1H,3H)-pyrimidinedione hydrochloride] | 6.9% | 10.3% | 13.9% | 17.4% | 18% | 25% | 0% | 29% | –
9 | Cn1c(N2CCN(CCCOc3ccc4c(=O)cc(-c5ccccc5)oc4c3)CC2)cc(=O)n(C)c1=O [Compound 48, 1,3-Dimethyl-6-(4-[3-(2-phenyl-4-oxo-4H-1-benzopyran-7-yl)oxypropyl]piperazine-1-yl)-2,4(1H,3H)-pyrimidinedione oxalate] | 0% | 0% | 6.9% | 20.4% | 7% | 12% | – | – | –
10 | CCOC(=O)c1cc(=O)c2ccc(OCCCN3CCN(c4cc(=O)n(C)c(=O)n4C)CC3)cc2o1 [Compound 50, 1,3-Dimethyl-6-(4-[3-(2-ethoxycarbonyl-4-oxo-4H-1-benzopyran-7-yl)oxypropyl]piperazine-1-yl)-2,4-(1H,3H)-pyrimidinedione oxalate] | 0% | 0% | 0% | 6.3% | 7% | 14% | – | 28% | –
11 | CC(C)NCC(O)c1ccc(NS(C)(=O)=O)cc1 (stereo not drawn) [d-sotalol, reference compound] | 1.7% | 6.7% | 8.7% | 15.5% | 3% | 7.4% | – | 15.8% | 0%
